From ChEMBL document CHEMBL1201862, “PubChem BioAssay data set” (2004)
One block for each compound: values may come before it. Activity calls are given as the source filed them.

Columns and labels:
Bcl-2-like protein 1 = Bcl-2-like protein 1 (Homo sapiens, UniProt Q07817); assay: BCL-XL inhibitors, dose response, selectivity assay for MCL1 inhibitor project, biochemical, fluorescence polarization, 1536-well (AID 2218)
[1] = target: Induced myeloid leukemia cell differentiation protein Mcl-1 (Homo sapiens, UniProt Q07820); assay: MCL1-BIM BH3 interaction inhibitors, dose response, biochemical, fluorescence polarization, BIM-BH3 peptide, 1536-well (AID 2217)
Sequence of Induced myeloid leukemia cell differentiation protein Mcl-1 (Q07820 whole entry): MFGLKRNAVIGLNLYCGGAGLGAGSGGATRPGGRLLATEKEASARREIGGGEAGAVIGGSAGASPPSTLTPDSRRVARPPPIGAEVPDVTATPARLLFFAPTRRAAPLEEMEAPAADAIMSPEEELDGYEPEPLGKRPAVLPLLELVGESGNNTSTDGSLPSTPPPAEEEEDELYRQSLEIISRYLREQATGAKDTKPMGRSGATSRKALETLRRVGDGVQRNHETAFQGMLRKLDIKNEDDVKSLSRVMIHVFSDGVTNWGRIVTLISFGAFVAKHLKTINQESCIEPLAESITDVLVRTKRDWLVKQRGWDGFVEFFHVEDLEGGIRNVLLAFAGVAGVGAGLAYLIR

Genome polyprotein = Genome polyprotein (Hepatitis C virus, UniProt Q2Q167); assay: HCV core protein dimerization inhibitors, dose response, biochemical, TR-FRET (AID 2159); parameters: species or system Hepacivirus hominis;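 further: blocks dimerization of HCV core protein measured by TR-FRET between tagged core106 pairs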
Sequence of Genome polyprotein (Q2Q167 whole entry): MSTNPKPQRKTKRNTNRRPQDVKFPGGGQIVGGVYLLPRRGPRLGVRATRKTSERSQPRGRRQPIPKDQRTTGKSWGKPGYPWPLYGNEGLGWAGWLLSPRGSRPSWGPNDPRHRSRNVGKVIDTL

NADPH oxidase 1 [2] = target: T1, NADPH oxidase 1 (Homo sapiens, UniProt Q9Y5S8); assay type: functional, cell-based
T1 sequence (Q9Y5S8 whole entry): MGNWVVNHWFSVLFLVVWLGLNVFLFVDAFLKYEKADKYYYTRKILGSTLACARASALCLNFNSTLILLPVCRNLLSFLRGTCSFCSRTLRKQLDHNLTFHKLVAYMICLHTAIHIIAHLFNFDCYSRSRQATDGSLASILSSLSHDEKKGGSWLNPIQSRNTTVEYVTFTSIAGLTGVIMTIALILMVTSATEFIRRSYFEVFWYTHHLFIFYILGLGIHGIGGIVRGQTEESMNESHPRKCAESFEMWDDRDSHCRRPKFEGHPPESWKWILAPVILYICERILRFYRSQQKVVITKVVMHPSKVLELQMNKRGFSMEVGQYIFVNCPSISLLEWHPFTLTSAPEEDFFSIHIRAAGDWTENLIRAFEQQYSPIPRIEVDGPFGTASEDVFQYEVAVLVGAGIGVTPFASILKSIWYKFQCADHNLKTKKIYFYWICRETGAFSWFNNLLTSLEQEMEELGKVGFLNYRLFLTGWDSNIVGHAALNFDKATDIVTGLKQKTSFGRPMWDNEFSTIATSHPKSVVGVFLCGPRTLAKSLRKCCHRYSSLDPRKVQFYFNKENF

[3] = insulin promoter down-regulators in MIN6 cells, imaging, high-content screening, mouse beta cells (AID 1628); assay type: functional
NADPH oxidase 1 [4] = target: T1, NADPH oxidase 1; assay: Luminescence-based cell-based dose response assay to identify inhibitors of NADPH oxidase 1 (NOX1).; assay type: functional
[5] = cytotoxicity in MIN6 insulinoma cells, dose response, cytotoxicity control, cell-based, mouse insulinoma (AID 2122); assay type: functional;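 further: confirmatory high-throughput counterscreen run to flag cytotoxic compounds; mouse MIN-6 beta cells carrying an insulin promoter eGFP reporter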
[6] = target: T2, Rac GTPase-activating protein 1 (Homo sapiens, UniProt Q9H0H5); assay: MgcRacGAP GTPase-activating activity inhibitors, confirmation, biochemical, ADP Hunter fluorescence, primary and confirmatory (AID 624330); assay type: functional
T2 sequence (Q9H0H5 whole entry): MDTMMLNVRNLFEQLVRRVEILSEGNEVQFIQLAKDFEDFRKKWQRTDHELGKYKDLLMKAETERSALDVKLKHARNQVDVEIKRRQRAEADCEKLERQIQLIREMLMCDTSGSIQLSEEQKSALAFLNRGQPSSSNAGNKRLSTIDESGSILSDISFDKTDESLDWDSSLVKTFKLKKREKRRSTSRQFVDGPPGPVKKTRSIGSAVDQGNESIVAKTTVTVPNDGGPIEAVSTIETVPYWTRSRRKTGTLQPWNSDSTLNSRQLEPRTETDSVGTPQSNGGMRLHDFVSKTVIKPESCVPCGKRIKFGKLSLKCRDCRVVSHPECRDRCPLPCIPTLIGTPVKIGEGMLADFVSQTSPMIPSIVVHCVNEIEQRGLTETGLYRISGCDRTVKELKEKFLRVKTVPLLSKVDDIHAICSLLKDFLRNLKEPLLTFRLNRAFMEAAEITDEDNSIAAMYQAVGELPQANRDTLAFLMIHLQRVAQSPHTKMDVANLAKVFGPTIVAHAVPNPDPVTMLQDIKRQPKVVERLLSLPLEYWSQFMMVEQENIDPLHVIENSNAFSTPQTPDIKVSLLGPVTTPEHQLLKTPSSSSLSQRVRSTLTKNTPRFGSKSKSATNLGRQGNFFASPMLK

[7] = target: Sphingosine 1-phosphate receptor 2 (Homo sapiens, UniProt O95136); assay: Dose Response Cell Based Assay for Agonists of the S1P2 Receptor of Purchased Analogues. [Related pubchem assays: 729, 843, 854, 736 ]; assay type: functional
Sequence of Sphingosine 1-phosphate receptor 2 (O95136 whole entry): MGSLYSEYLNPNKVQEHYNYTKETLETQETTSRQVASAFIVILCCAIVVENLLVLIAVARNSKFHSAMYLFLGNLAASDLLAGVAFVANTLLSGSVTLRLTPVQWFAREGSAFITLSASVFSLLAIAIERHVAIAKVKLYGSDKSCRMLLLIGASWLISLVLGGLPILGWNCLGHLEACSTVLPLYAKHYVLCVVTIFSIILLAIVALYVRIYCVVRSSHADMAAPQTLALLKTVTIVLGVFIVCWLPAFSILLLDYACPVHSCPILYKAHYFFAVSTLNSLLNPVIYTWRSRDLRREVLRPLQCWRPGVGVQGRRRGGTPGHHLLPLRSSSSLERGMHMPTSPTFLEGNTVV

Galanin receptor type 2 = Galanin receptor type 2 (Homo sapiens, UniProt O43603); assay: Dose Response cell-based high-throughput screening assay to identify antagonists of galanin receptor 2 (GALR2). [Related pubchem assays: 828, 866 ]; assay type: functional
Sequence of Galanin receptor type 2 (O43603 whole entry): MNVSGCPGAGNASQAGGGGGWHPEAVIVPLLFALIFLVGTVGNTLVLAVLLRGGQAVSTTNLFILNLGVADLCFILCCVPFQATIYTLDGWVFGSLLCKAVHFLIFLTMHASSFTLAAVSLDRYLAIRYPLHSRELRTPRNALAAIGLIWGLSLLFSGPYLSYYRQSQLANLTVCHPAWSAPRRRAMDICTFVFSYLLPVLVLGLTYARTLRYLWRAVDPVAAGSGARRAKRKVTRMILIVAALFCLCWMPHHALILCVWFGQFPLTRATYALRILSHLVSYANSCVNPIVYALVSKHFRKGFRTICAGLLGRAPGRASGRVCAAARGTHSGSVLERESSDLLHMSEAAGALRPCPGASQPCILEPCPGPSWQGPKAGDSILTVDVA

[8] = control 3'UTR Renilla luciferase suppression, dose response, counter-screen for Shn3 inhibitor project, cell-based, Clone20-Shn3RL, cherry-picked (AID 624133); assay type: functional
[9] = HepG2 cell cytotoxicity, dose response, cytotoxicity control for Shn3 inhibitor project, CellTiter-Glo, cherry-picked (AID 624134); assay type: functional, cell-based
INS1 = assay: beta cell apoptosis inhibitors, cytokine rescue, dose response, luminescence, retest (AID 449756); assay type: functional, cell-based; details: Rattus norvegicus;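 further: cell death triggered by IL-1 beta plus TNF-alpha plus IFN-gamma mixture; protective hits raise ATP signal compared with cytokine alone wells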
[10] = target: T3, COUP transcription factor 2 (Homo sapiens, UniProt P24468); assay: Luminescence-based cell-based high throughput dose response assay to identify inhibitors of COUP-TFII (NR2F2).; assay type: functional;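 further: HEK293 cells transiently cotransfected with COUP-TFII expression vector and reporter; luciferase reporter luminescence driven by COUP-TFII from the pX2-168 reporter plasmid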
T3 sequence (P24468 whole entry): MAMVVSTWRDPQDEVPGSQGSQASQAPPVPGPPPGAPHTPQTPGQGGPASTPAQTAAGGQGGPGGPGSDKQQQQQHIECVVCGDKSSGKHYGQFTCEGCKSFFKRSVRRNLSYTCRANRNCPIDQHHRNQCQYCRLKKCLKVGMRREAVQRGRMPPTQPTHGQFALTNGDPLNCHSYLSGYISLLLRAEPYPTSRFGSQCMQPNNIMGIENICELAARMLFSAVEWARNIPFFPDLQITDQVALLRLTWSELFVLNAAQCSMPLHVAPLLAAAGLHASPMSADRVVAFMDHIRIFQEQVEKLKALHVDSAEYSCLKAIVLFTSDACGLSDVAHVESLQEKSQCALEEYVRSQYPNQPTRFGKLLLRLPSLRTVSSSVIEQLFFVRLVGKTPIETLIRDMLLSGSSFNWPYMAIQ

[11] = Shn3 3'UTR reporter inhibitors, dose response, cell-based, Clone20 osteoblasts, firefly luciferase, cherry-picked (AID 624132); assay type: functional;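 further: firefly luciferase luminescence from reporter carrying the Shn3 3'UTR in osteoblasts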

Sequence of Bcl-2-like protein 1 (Q07817 whole entry): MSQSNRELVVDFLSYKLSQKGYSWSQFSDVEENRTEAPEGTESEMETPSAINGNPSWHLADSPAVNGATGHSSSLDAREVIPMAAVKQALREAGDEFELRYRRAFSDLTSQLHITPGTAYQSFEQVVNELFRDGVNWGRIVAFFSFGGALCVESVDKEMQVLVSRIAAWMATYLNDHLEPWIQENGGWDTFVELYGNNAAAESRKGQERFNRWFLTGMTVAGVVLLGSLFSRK

IC50 (Bcl-2-like protein 1): > 109 µM (not active)
IC50 [1]: 7.31 µM (active)
IC50 (Genome polyprotein): 42.6 µM (not active)
Structure (SMILES): COc1ccc(NC(=O)CN(C)C(=O)c2cc3c(s2)CCC3)cc1

Structure (SMILES): COc1ccc2c(c1)Sc1ccccc1N2
IC50 (NADPH oxidase 1 [2]): 0.935 µM (active)
IC50 [3]: 2.01 µM (active)
IC50 (NADPH oxidase 1 [4]): > 20 µM (not active)
IC50 [5]: 1.63 µM (active)
IC50 [6]: 28.8 µM (active)

EC50 [7]: > 30 µM (not active)
Structure (SMILES): COc1ccc(NC(=O)CN(C)CC(=O)c2cc(C)n(Cc3ccccc3)c2C)cc1

Structure (SMILES): CC(=O)c1c(C)[nH]c(C(=O)OCC(=O)Nc2ccc(Cl)cc2[N+](=O)[O-])c1C
IC50 (Galanin receptor type 2): > 42 µM (not active)
AC50 [8]: 13.6 µM (active)
AC50 [9]: 53.2 µM (active)
AC50 (INS1): 1.98 µM (active)
IC50 [10]: 6.5 µM (active)
AC50 [11]: 0.325 µM (active)
